# From patent publication US20260138958A1, “SUBSTITUTED N-PHENYLURACILS AND SALTS THEREOF, AND USE THEREOF AS HERBICIDAL ACTIVE SUBSTANCES” (Bayer Aktiengesellschaft, priority 2022, published 2026)
# Legend:
# Assay type in all cases: in vivo
# Veronica persica (VERPE) = assay: Post-emergence herbicidal action, greenhouse pot test
# How it was run: (§1)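 Post-em greenhouse pots, sandy loam; one-leaf stage (2–3 wk after sowing); WP/EC spray, aq. suspension/emulsion + 0.5% additive, 600 l/ha; optimum conditions ~3 wk; visual % activity vs untreated (100% = dead).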
# Viola tricolor (VIOTR) = assay: as above
# How it was run: as §1
# [1] = system: Alopecurus myosuroides (ALOMY); assay: as above
# How it was run: as §1
# [2] = system: Echinochloa crus-galli (ECHCG); assay: as above
# How it was run: as §1
# Lolium rigidum (LOLRI) = assay: as above
# How it was run: as §1
# [3] = system: Amaranthus retroflexus (AMARE); assay: as above
# How it was run: as §1
# Setaria viridis (SETVI) = assay: as above
# How it was run: as §1
# [4] = system: Abutilon theophrasti (ABUTH); assay: as above
# How it was run: as §1
# [5] = system: Pharbitis purpurea (PHBPU); assay: as above
# How it was run: as §1
# [6] = system: Tripleurospermum inodorum (MATIN); assay: as above
# How it was run: as §1
# [7] = system: Polygonum convolvulus (POLCO); assay: as above
# How it was run: as §1
# [8] = system: Triticum aestivum (TRZAS); assay: Post-emergence crop plant compatibility, greenhouse pot test; conditions: crop plant, post-emergence, 1.25 g/ha
# How it was run: (§2)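 Visual % damage scores were taken roughly 3 weeks after treatment, relative to untreated plants, where 100% means plants died and 0% means no difference. Plants received aqueous sprays (WP or EC, 0.5% additive, 600 l/ha) on green parts at the one-leaf stage, 2–3 weeks after sowing.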
# Oryza sativa (ORYSA) = assay: as above; conditions: crop plant, post-emergence
# How it was run: as §2
# Zea mays (ZEAMX) = assay: as above; conditions: crop plant, post-emergence, 1.25 g/ha
# How it was run: as §2
compound,measurement,setting,value
Cn1c(C(F)(F)F)cc(=O)n(-c2cc(Oc3ccccc3OCC(=O)OCC3CC3)c(Cl)cc2F)c1=O [I.7-1],Post-emergence effect at 1.25 g/ha against VERPE in %,Veronica persica (VERPE); 1.25 g/ha,100%
same,Post-emergence effect at 5 g/ha against VERPE in %,Veronica persica (VERPE); 5 g/ha,100%
same,Post-emergence effect at 20 g/ha against VERPE in %,Veronica persica (VERPE); 20 g/ha,100%
same,Post-emergence effect at 1.25 g/ha against VIOTR in %,Viola tricolor (VIOTR); 1.25 g/ha,100%
same,Post-emergence effect at 5 g/ha against VIOTR in %,Viola tricolor (VIOTR); 5 g/ha,100%
same,Post-emergence effect at 20 g/ha against VIOTR in %,Viola tricolor (VIOTR); 20 g/ha,100%
same,Post-emergence effect at 5 g/ha against ALOMY in %,[1]; 5 g/ha,90%
same,Post-emergence effect at 20 g/ha against ALOMY in %,[1]; 20 g/ha,100%
same,Post-emergence effect at 1.25 g/ha against ECHCG in %,[2]; 1.25 g/ha,100%
same,Post-emergence effect at 5 g/ha against ECHCG in %,[2]; 5 g/ha,100%
same,Post-emergence effect at 20 g/ha against ECHCG in %,[2]; 20 g/ha,100%
same,Post-emergence effect at 20 g/ha against LOLRI in %,Lolium rigidum (LOLRI),80%
same,Post-emergence effect at 1.25 g/ha against AMARE in %,[3]; 1.25 g/ha,100%
same,Post-emergence effect at 5 g/ha against AMARE in %,[3]; 5 g/ha,100%
same,Post-emergence effect at 20 g/ha against AMARE in %,[3]; 20 g/ha,100%
same,Post-emergence effect at 1.25 g/ha against SETVI in %,Setaria viridis (SETVI); 1.25 g/ha,100%
same,Post-emergence effect at 5 g/ha against SETVI in %,Setaria viridis (SETVI); 5 g/ha,100%
same,Post-emergence effect at 20 g/ha against SETVI in %,Setaria viridis (SETVI); 20 g/ha,100%
same,Post-emergence effect at 1.25 g/ha against ABUTH in %,[4]; 1.25 g/ha,90%
same,Post-emergence effect at 5 g/ha against ABUTH in %,[4]; 5 g/ha,100%
same,Post-emergence effect at 20 g/ha against ABUTH in %,[4]; 20 g/ha,100%
same,Post-emergence effect at 1.25 g/ha against PHBPU in %,[5]; 1.25 g/ha,80%
same,Post-emergence effect at 5 g/ha against PHBPU in %,[5]; 5 g/ha,100%
same,Post-emergence effect at 20 g/ha against PHBPU in %,[5]; 20 g/ha,100%
same,Post-emergence effect at 1.25 g/ha against MATIN in %,[6]; 1.25 g/ha,80%
same,Post-emergence effect at 5 g/ha against MATIN in %,[6]; 5 g/ha,100%
same,Post-emergence effect at 20 g/ha against MATIN in %,[6]; 20 g/ha,100%
same,Post-emergence effect at 1.25 g/ha against POLCO in %,[7]; 1.25 g/ha,80%
same,Post-emergence effect at 5 g/ha against POLCO in %,[7]; 5 g/ha,100%
same,Post-emergence effect at 20 g/ha against POLCO in %,[7]; 20 g/ha,100%
same,Post-emergence effect at 1.25 g/ha against TRZAS in %,[8],0%
same,Post-emergence effect at 1.25 g/ha against ORYSA in %,Oryza sativa (ORYSA); 1.25 g/ha,0%
same,Post-emergence effect at 5 g/ha against ORYSA in %,Oryza sativa (ORYSA); 5 g/ha,20%
same,Post-emergence effect at 1.25 g/ha against ZEAMX in %,Zea mays (ZEAMX),20%
